In patent US20120016009A1, “Optimized Methods For Delivery Of DSRNA Targeting The PCSK9 Gene” (priority 2008, published 2012):
In the oligonucleotide strings, read from the 5' end, every base follows the letter of its sugar. An asterisk marks phosphorothioate; unmarked linkages are phosphodiester. Other units and linkages are bracketed, terminal groups are in braces. A string of capitals states the bases alone. d = 2'-deoxy (DNA); m = 2'-O-methyl; r = 2'-OH (RNA)

Test system: PCSK9 mRNA
Assay: PCSK9 siRNA screening in HepG2 cells (lipofectamine 2000 transfection, PCSK9 mRNA by Quantigene, normalized to GAP-DH)
Assay type: cell-based, human
Details: for Mean percent remaining mRNA transcript at siRNA concentration/in cell type 30 nM/HepG2: 30 nM siRNA; for Mean percent remaining mRNA transcript at siRNA concentration/in cell type 3 nM/HepG2: 3 nM siRNA
How it was run: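 PCSK9 silencing was assessed in HepG2 cells by lipofectamine 2000 siRNA transfection in 96-well plates. Twenty-four hours later, lysates were analyzed with the Quantigene Explore Kit, with PCSK9 signal normalized to GAP-DH. Eight datapoints were collected per siRNA, and remaining transcript was expressed as a percentage of cells treated with an unrelated control siRNA duplex.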

Which “Mean percent remaining mRNA transcript at siRNA concentration/in cell type 30 nM/HepG2” value does the source give for “AD-9517: PCSK9 siRNA (sense rGrGrArGrGrUrGrUrArUrCrUrCrCrUrArGrArCdT*dT; antisense rGrUrCrUrArGrGrArGrArUrArCrArCrCrUrCrCdT*dT)” here?
The value was 36%.

Which results are given for “AD-9620: PCSK9 siRNA (sense rCrArGrGrArGrCrCrGrGrGrArCrGrUrCrArGrCdT*dT; antisense rGrCrUrGrArCrGrUrCrCrCrGrGrCrUrCrCrUrGdT*dT)”?
Mean percent remaining mRNA transcript at siRNA concentration/in cell type 30 nM/HepG2: 77%; Mean percent remaining mRNA transcript at siRNA concentration/in cell type 100 nM/HepG2 (100 nM siRNA): 44%

“AD-9701: PCSK9 siRNA (sense mCmCrGmCmUrGmCmCrGrGmCrArAmCmUmUmCmCrGdT*dT; antisense rCrGrGrArArGrUrUrGrCrCrGrGmCrArGrCrGrGdT*dT)” was tested. Which “Mean percent remaining mRNA transcript at siRNA concentration/in cell type 30 nM/HepG2” value did it give?
The value was 100%.

How did the IC50 turn out when “AD-9607: PCSK9 siRNA (sense rGrGrArGrCrUrGrGrUrGrCrUrArGrCrCrUrUrGdT*dT; antisense rCrArArGrGrCrUrArGrCrArCrCrArGrCrUrCrCdT*dT)” was run?
The IC50 was 200 pM.

And the “Mean percent remaining mRNA transcript at siRNA concentration/in cell type 3 nM/HepG2” value?
The value was 28%.

And the “Mean percent remaining mRNA transcript at siRNA concentration/in cell type 30 nM/HepG2” value?
The value was 32%.

How did the “Mean percent remaining mRNA transcript at siRNA concentration/in cell type 30 nM/HepG2” value turn out when “AD-9692: PCSK9 siRNA (sense mUrGmCmCrGrGrGmCmCmCrAmCrArAmCrGmCmUmUdT*dT; antisense rArArGrCrGrUrUrGrUrGrGrGrCrCrCrGrGmCrAdT*dT)” was run?
Its value is 78%.

Which “Mean percent remaining mRNA transcript at siRNA concentration/in cell type 30 nM/HepG2” value does the source give for “AD-9528: PCSK9 siRNA (sense rCrGrGrUrArCrCrGrGrGrCrGrGrArUrGrArArUdT*dT; antisense rArUrUrCrArUrCrCrGrCrCrCrGrGrUrArCrCrGdT*dT)” here?
Its value is 113%.

How did the “Mean percent remaining mRNA transcript at siRNA concentration/in cell type 30 nM/HepG2” value turn out when “AD-9516: PCSK9 siRNA (sense rUrGrUrArUrCrUrCrCrUrArGrArCrArCrCrArGdT*dT; antisense rCrUrGrGrUrGrUrCrUrArGrGrArGrArUrArCrAdT*dT)” was run?
The value was 94%.

“AD-9617: PCSK9 siRNA (sense rArUrGrCrUrGrUrCrUrGrCrCrGrArGrCrCrGrGdT*dT; antisense rCrCrGrGrCrUrCrGrGrCrArGrArCrArGrCrArUdT*dT)” was tested. Which “Mean percent remaining mRNA transcript at siRNA concentration/in cell type 30 nM/HepG2” value did it give?
The value was 111%.

“AD-9629: PCSK9 siRNA (sense rUrCrUrGrGrGrUrUrUrUrGrUrArGrCrArUrUrUdT*dT; antisense rArArArUrGrCrUrArCrArArArArCrCrCrArGrAdT*dT)” was tested. Which “Mean percent remaining mRNA transcript at siRNA concentration/in cell type 3 nM/HepG2” value did it give?
Its value is 24%.

And the “Mean percent remaining mRNA transcript at siRNA concentration/in cell type 30 nM/HepG2” value?
The value was 23%.

Which results are given for “AD-9673: PCSK9 siRNA (sense mCmUmCrGmCrArGmUmCrArGrArGmCrGmCrAmCmUdT*dT; antisense rArGrUrGrCrGrCrUrCrUrGrArCrUrGrCrGrArGdT*dT)”?
Mean percent remaining mRNA transcript at siRNA concentration/in cell type 3 nM/HepG2: 57%; Mean percent remaining mRNA transcript at siRNA concentration/in cell type 30 nM/HepG2: 56%

With “AD-9596: PCSK9 siRNA (sense rGrArArGrArUrGrArGrUrGrGrCrGrArCrCrUrGdT*dT; antisense rCrArGrGrUrCrGrCrCrArCrUrCrArUrCrUrUrCdT*dT)” as the substance, how does the “Mean percent remaining mRNA transcript at siRNA concentration/in cell type 30 nM/HepG2” value read?
Its value is 37%.

How did the “Mean percent remaining mRNA transcript at siRNA concentration/in cell type 30 nM/HepG2” value turn out when “AD-9661: PCSK9 siRNA (sense rGrArGmUrGrAmCmCrAmCmCrGrGrGrArArAmUmCdT*dT; antisense rGrArUrUrUrCrCrCrGrGrUrGrGrUmCrArCrUrCdT*dT)” was run?
Its value is 83%.

How did the “Mean percent remaining mRNA transcript at siRNA concentration/in cell type 30 nM/HepG2” value turn out when “AD-9722: PCSK9 siRNA (sense rGrArArGrAmUrGrArGmUrGrGmCrGrAmCmCmUrGdT*dT; antisense mCrArGrGrUrCrGrCmCrArCrUmCrArUrCrUrUrCdT*dT)” was run?
The value was 76%.

How did the “Mean percent remaining mRNA transcript at siRNA concentration/in cell type 30 nM/HepG2” value turn out when “AD-9717: PCSK9 siRNA (sense rAmCmUrGmUmCmCmCmUmCmCmUmUrGrArGmCrAmCdT*dT; antisense rGrUrGrCrUmCrArArGrGrArGrGrGrAmCrArGrUdT*dT)” was run?
Its value is 105%.

For “AD-9563: PCSK9 siRNA (sense rCrGrCrUrGrCrCrGrGrCrArArCrUrUrCrCrGrGdT*dT; antisense rCrCrGrGrArArGrUrUrGrCrCrGrGrCrArGrCrGdT*dT)”, which “Mean percent remaining mRNA transcript at siRNA concentration/in cell type 30 nM/HepG2” value is on record?
The value was 103%.

Which “Mean percent remaining mRNA transcript at siRNA concentration/in cell type 30 nM/HepG2” value does the source give for “AD-9683: PCSK9 siRNA (sense mCmCrAmCmCrGrGrGrArArAmUmCrGrArGrGrGmCdT*dT; antisense rGrCrCrCrUrCrGrArUrUrUrCrCrCrGrGrUrGrGdT*dT)” here?
Its value is 48%.

Which “Mean percent remaining mRNA transcript at siRNA concentration/in cell type 30 nM/HepG2” value does the source give for “AD-9642: PCSK9 siRNA (sense mUrGmUrAmUmCmUmCmCmUrArGrAmCrAmCmCrArGdT*dT; antisense rCrUrGrGrUrGrUrCmUrArGrGrArGrAmUrAmCrAdT*dT)” here?
The value was 105%.

Which results are given for “AD-9524: PCSK9 siRNA (sense rGrCrUrGrGrUrGrCrUrArGrCrCrUrUrGrCrGrUdT*dT; antisense rArCrGrCrArArGrGrCrUrArGrCrArCrCrArGrCdT*dT)”?
IC50: 70 pM; Mean percent remaining mRNA transcript at siRNA concentration/in cell type 3 nM/HepG2: 28%; Mean percent remaining mRNA transcript at siRNA concentration/in cell type 30 nM/HepG2: 23%
